Test results from patent US8198263B2, “Vitamin D derivatives active on the vitamin D nuclear receptor, preparation and uses thereof” (Centre National de la Recherche Scientifique, priority 2005, dated 2012).
Like-named read-outs stand apart in the source and are kept apart here.

Tests used:
[1] = set-up: species or system C57BL/6J mice; conditions: mouse, in vivo, po
Method: FIG. 3: Effects of 1α,25(OH)2D3 and new ligands (compounds A and B) on calcium levels in serum. (FIG. 3.1) Mice were fed either with vehicle (sesame oil), 1α,25(OH)2D3 2 μg/kg, 2 μg/kg compound A or 2 μg/kg compound B during 7 days. (FIG. 3.2) Mice were fed either with vehicle (Veh), 1α,25(OH)2D3 (D3), or compound A during 4 days. Data are presented as mean±SEM. Significant differences are marked as *p<0.05, ***p<0.01.
Male C57BL/6J mice, 6-7 weeks of age, were obtained from Charles River Laboratories France (l'Arbresle, France). All mice were maintained in a temperature-controlled (23° C.) facility with a 12 h light/dark cycle and were given free access to food and water. The mice were fed the EQ12310 diet from UAR (Villemoison sur Orge, France), which contained 16.8% protein, 73.5% carbohydrate and 4.8% fat. The different VDR agonists were dissolved in sesame oil and administered by oral gavage at the indicated doses. The mice were fasted 4 h before harvesting blood for subsequent Calcium measurements, which were performed as described (1).
Thereafter a detailed dose response (0.2, 0.5, 1, and 2 μg/kg) was performed with both 1α,25(OH)2D3, and compound A (FIG. 3.2). In this study compounds were gavaged during 4 consecutive days.

human VDR = molecular target: T1, human VDR (Homo sapiens, UniProt P11473); experiment: Transfection and transactivation assay (GAL4 DBD-VDR LBD, UAS-TATA-luciferase reporter, 293 EBNA cells); type: cell-based; conditions: for VDR agonist character: summary statement
T1 construct: an expression plasmid of GAL4 DBD-VDR LBD; expressed in transfected cells; host or cells: 293 EBNA cells
T1 sequence (P11473 127-423 limits assumed): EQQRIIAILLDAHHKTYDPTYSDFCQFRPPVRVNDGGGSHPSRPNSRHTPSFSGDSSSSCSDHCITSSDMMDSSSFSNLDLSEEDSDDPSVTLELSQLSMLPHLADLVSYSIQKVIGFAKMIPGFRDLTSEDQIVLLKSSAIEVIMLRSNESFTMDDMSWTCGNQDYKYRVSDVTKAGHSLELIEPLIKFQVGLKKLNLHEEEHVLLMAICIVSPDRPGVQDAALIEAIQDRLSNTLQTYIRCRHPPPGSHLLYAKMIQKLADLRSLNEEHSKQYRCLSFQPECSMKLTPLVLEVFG
Excerpt: FIG. 2: Transcriptional activation of VDR by 1α,25(OH)2D3, compound A and compound B. 293 EBNA cells were transiently transfected with a UAS-TATA-luciferase reporter plasmid and an expression plasmid of GAL4 DBD-VDR LBD and subsequently treated with 1α,25(OH)2D3, compound A (A), and compound B (B) at 10^−10 and 10^−9M. Luciferase activity for each sample was normalized to the β-galactosidase activity. Data is shown as fold induction of agonist induced luciferase activity divided by luciferase activity of vehicle.
The human VDR LBD was subcloned into the pG4M derived plasmid as a Gal fusion protein. Transient transfection experiments for the analysis of VDR activation were performed in 48 wells plates, using a standard calcium phosphate coprecipitation technique as described (11). 293 EBNA cells were seeded (6.0×10^4 cells per well) and incubated for 24 hours at 37° C. in medium containing Dulbecco medium (DMEM+1 g/L glucose), 10% FCS, gentamycine and 1 mg/ml G418 (geneticin). 293 EBNA cells were transiently transfected with 12.5 ng of Gal-4-VDR LBD plasmid, 10 ng of UAS-TATA-luciferase reporter plasmid, and 37.5 ng of PCH110 internal control recombinant expressing β-galactoside plasmid. After cells were incubated for 8 hours at 37° C., the medium was replaced and the compounds were added in optimized serial dilutions. After 20 hours at 37° C., cells were washed with PBS and harvested in Passiv lysis buffer (Promega). The cell lysates were assayed for lusiferase and β-galactosidase activity. Luciferase activity for each sample was normalized to β-galactosidase activity. Cells were treated with 1α, 25(OH)2D3, compound A, and compound B. All experiments were performed in duplicates.

| SMILES | dose at which the effect on serum calcium levels became significant / caused hypercalcemia [1] [µg/kg] | transcriptional activities of human VDR induced, times more efficiently than 1α,25(OH)2D3 (human VDR; at 10^−10 M, 293 EBNA cells, luciferase normalized to β-galactosidase) [times] | VDR agonist character (human VDR) | dose at which the effect on serum calcium levels became significant / caused hypercalcemia ([1]; male, C57BL/6J, 4 days) [µg/kg] | effect on serum calcium levels compared with 1α,25(OH)2D3 [1] |
| --- | --- | --- | --- | --- | --- |
| C=C1/C(=C\C=C2/CCC[C@]3(C)[C@@H]([C@H](C)CCCC(C)(C)O)CC[C@@H]23)C[C@@H](O)C[C@@H]1O [1α,25(OH)2D3, reference compound] | 1 |  |  |  |  |
| C=C1/C(=C\C=C2/CCC[C@@]3(C)[C@H]2CC[C@@H]3[C@]2(C)C[C@H](CC(C)(C)O)CO2)C[C@@H](O)C[C@@H]1O [compound A, (1R,3S,5Z)-5-((E)-2-((1S,3aS,7aS)-hexahydro-1-((2S,4S)-tetrahydro-4-(2-hydroxy-2-methylpropyl)-2-methylfuran-2-yl)-7a-methyl-1H-inden-4(7aH)-ylidene)ethylidene)-4-methylenecyclohexane-1,3-diol] |  | 12 | superagonist activity | 2 | weaker effect on serum calcium levels |
| C=C1/C(=C\C=C2/CCC[C@@]3(C)[C@H]2CC[C@@H]3[C@]2(C)C[C@@H](CC(C)(C)O)CO2)C[C@@H](O)C[C@@H]1O [compound B, (1R,3S,5Z)-5-((E)-2-((1S,3aS,7aS)-hexahydro-1-((2S,4R)-tetrahydro-4-(2-hydroxy-2-methylpropyl)-2-methylfuran-2-yl)-7a-methyl-1H-inden-4(7aH)-ylidene)ethylidene)-4-methylenecyclohexane-1,3-diol] |  |  | behaves like 1α,25(OH)2D3 |  |  |
